Experimental findings from patent US11802110B2, “2-amino-N-(arylsulfinyl)-acetamide compounds as inhibitors of bacterial aminoacyl-tRNA synthetase” (priority 2016, dated 2023) are described below.

Converted amounts (≈) assume the structure as drawn. “And” between values parts separate entries of the source, which are not always exact repeats. Identical values can stand only once. Like-named read-outs stand apart in the source and are kept apart here.

Data set [1] has as its system wild type E. Coli strain BW25113. As to the kind of experiment: Study 3 - Antibacterial activity (EC50), dilution susceptibility test M07-A9. The class given is cell-based, Escherichia coli. The conditions noted are these: for EC50: Escherichia coli. As to the method:
The antibacterial activity of the separated diastereomers (V-i) and (V-ii) was determined against wild type E. Coli strain BW25113.
The method described in “Methods for Dilution Antimicrobial Susceptibility Tests for Bacteria that Grow Aerobically; Approved Standard—Ninth Edition” (M07-A9; Vol. 32, No. 2) was used.

A further data set deals with Escherichia Coli LeuRS (Escherichia coli (strain K12), UniProt P07813). As to the kind of experiment: Study 1 - Isothermal titration calorimetry (ITC), separated diastereomers. The class given is binding. As to the method: The dissociation constants (KD) of the separated diastereomers (V-i) and (V-ii) for binding to Escherichia Coli LeuRS were determined by isothermal titration calorimetry (ITC).
Sequence of Escherichia Coli LeuRS (P07813 whole entry): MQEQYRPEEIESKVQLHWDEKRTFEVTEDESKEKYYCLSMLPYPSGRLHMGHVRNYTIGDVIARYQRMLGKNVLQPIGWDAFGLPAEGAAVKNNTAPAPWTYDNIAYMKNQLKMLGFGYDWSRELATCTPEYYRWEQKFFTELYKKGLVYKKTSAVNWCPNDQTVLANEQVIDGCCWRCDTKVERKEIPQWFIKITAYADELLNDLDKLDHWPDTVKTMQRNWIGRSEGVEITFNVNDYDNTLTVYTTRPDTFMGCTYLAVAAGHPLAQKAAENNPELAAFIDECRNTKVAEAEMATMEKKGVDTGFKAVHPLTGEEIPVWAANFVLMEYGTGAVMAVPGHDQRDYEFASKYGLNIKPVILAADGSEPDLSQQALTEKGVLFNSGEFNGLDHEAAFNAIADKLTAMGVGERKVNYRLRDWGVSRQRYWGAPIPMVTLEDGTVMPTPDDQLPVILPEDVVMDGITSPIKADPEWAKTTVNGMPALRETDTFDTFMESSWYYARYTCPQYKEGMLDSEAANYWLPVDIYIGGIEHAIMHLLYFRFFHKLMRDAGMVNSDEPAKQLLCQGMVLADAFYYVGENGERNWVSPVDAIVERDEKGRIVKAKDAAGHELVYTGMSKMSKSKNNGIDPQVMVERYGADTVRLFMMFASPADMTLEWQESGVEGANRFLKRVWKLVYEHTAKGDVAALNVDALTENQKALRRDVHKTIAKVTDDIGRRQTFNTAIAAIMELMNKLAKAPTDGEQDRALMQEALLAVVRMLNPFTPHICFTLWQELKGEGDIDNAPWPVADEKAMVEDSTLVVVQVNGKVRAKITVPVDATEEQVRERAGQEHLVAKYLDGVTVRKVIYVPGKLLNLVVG
Escherichia coli BL21(DE3) cells transformed with plasmid pQE-60 containing the open-reading frame sequence of one targeted aaRS (i.e., LeuRS) were induced with 1 mM IPTG (isopropyl β-D-1-thiogalactopyranoside) for 3 hours at 37° C. Bacterial cells were harvested and lysed with 20 mM HEPES (4-(2-hydroxyethyl)-1-piperazinylethane-sulfonic acid) (pH 7.5), 300 mM NaCl, 15 mM imidazole and 1 mM DTT (1,4-dithio-D-threitol). The pathogenic aaRS was first purified by nickel affinity standard chromatography. The eluted protein was concentrated and then further purified by gel filtration using 50 mM HEPES (pH 7.5), 150 mM NaCl buffer.
ITC studies were carried out using a Microcal ITC200 instrument (GE Healthcare). […] The titrations were performed at 25° C. with 10-30 μM E. Coli LeuRS in 50 mM HEPES, 150 mM NaCl, pH 7.5 buffer containing 1% DMSO (v/v). The protein solution in the 200 μL sample cell was titrated with the inhibitor solution (diluted to 100-300 μM in the same buffer as the protein) using 1-2 μL injections every 140 seconds. All titrations were repeated at least three times. To correct for heats of dilution and mixing, the final baseline consisting of small peaks of identical size at the end of each experiment was subtracted. The experimental data were fitted to a theoretical titration curve (one site model) using MicroCal Origin 7 software.

Data set [2] can be described thus: Human cell viability (cytotoxicity), ATP levels by CellTiter-Glo. The class given is cell-based. As to conditions: HepG2 cells (ATCC HB-8065), 24 hours incubation, read-out: IC50 (μg/mL), Cytotoxicity in HepG2 ATCC HB-8065 Cell Line. The essentials:
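HepG2 cells were grown for two days and then exposed to compounds in duplicate for 24 hours, with 1.28% final DMSO. Viability was read as ATP by CellTiter-Glo luminescence relative to DMSO-only wells. IC50 values are in μg/mL.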
(In general: ATP-based viability assays read luminescence as a measure of living cells.)

Another data set deals with E. Coli LeuRS (Escherichia coli (strain K12), UniProt P07813). As to the kind of experiment: Study 2 - Isothermal titration calorimetry (ITC). The format is binding. The conditions noted are these: 25° C., pH 7.5, mean ± SD. The essentials:
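His-tagged E. coli LeuRS, expressed in BL21(DE3), purified by Ni affinity and gel filtration. Titrations at 25 °C with 7.5-100 μM enzyme in 50 mM HEPES, 150 mM NaCl, pH 7.5, 1% DMSO, injecting 75-3000 μM ligand; dilution heats subtracted, data fitted to one-site model, at least duplicate runs.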
A general note: Isothermal titration calorimetry measures the heat released or taken up as one component is titrated into another.

The test system of data set [3] is Pseudomonas aeruginosa ATCC 27853. Kind of data set: Study 4 - MIC by broth micro-dilution (CLSI). The class given is cell-based. As to conditions: Pseudomonas aeruginosa, ATCC27853. The essentials:
(§1)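 CLSI broth microdilution in Mueller-Hinton medium, compounds serially diluted across the plate. MIC taken as the first concentration without visible bacterial growth. A run counts only when standard antibiotics against the ATCC reference strains fall within the CLSI ranges.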
On the technique in general: In broth dilution the organism is exposed to a series of concentrations in liquid medium.

Data set [4] has as its system Enterobacter cloacae B1966 clinical isolate. As to the kind of experiment: Study 4 - MIC by broth micro-dilution (CLSI). The class given is cell-based. As to conditions: Enterobacter cloacae. The essentials:
as §1

In data set [5] the test system is Escherichia coli ATCC 25922. Kind of data set: Study 4 - MIC by broth micro-dilution (CLSI). The class given is cell-based. As to conditions: Escherichia coli, ATCC25922. Summed up: as §1
For data set [6], the system named is Klebsiella pneumoniae ATCC 700603. As to the kind of experiment: Study 4 - MIC by broth micro-dilution (CLSI). The class given is cell-based. As to conditions: Klebsiella pneumoniae, ATCC700603. Summed up: as §1
For data set [7], the system named is Haemophilus influenzae ATCC 49247. Kind of data set: Study 4 - MIC by broth micro-dilution (CLSI). The conditions noted are these: Haemophilus influenzae, ATCC49247; G = H. influenzae ATCC 49247; read-out: MIC. The format is cell-based. Summed up: as §1
Data set [8] concerns Acinetobacter baumannii B1931 clinical isolate. As to the kind of experiment: Study 4 - MIC by broth micro-dilution (CLSI). As to conditions: Acinetobacter baumannii. The class given is cell-based. The essentials:
as §1

Data set [9] concerns Escherichia coli ATCC 25922 TolC deficient mutant (E. coli EFFLUX del). Kind of data set: microbe, parasite or virus in culture. The format is cell-based. The conditions noted are these: Escherichia coli, ATCC25922. As to the method:
Minimum Inhibitory Concentrations (MICs) were determined by the broth micro-dilution method performed according to Clinical Laboratory Standards Institute guidelines. For testing, 5 mg/mL DMSO solutions were prepared by dissolving solids in DMSO. Standard antibiotics were prepared according to CLSI guidelines as 5 mg/mL stock solutions. Upon DMSO stock solutions preparation, the working solutions in MH media were prepared by adding 38.4 μL of stock solution to 1461.6 μL of MH media. Out of these working solutions 100 μL were transferred to wells in the third column of 96-well assay plates. Assay plates were previously filled with 50 μL of MH media in all wells except for the wells in the third column. Upon compounds and antibiotics addition, 50 μL was transferred from the third to the fourth column, then from the fourth to the fifth and so on.
MIC value was determined by visual inspection of bacterial growth within 96-well plates. The first column in which there was no visible growth of bacteria was determined as MIC value for compound or antibiotic tested in that particular row. ATCC strains were used as reference strains for which there is a determined value of MIC values for standard antibiotics. The assay is considered valid when MIC values for standard antibiotics are within CLSI designated range for ATCC strain tested.

The mark [10] stands for this setting: ITC, 25° C., pH 7.5, single replicates 1-3.
Setting [11] is: ITC, 25° C., pH 7.5, single replicates 1-3, read-out: K (binding constant) (converted).
The mark [12] stands for this setting: read-out: KD (dissociation constant).

Sequence of E. Coli LeuRS (P07813 whole entry): as above

By EC50 is commonly meant the concentration giving half of the maximal effect. A low value points to a more potent agent. For `CC(C)C[C@H](N)C(=O)N[S@@+]([O-])c1ccccc1` (single isomer, unassigned) [V-ii], the 50% effective concentration (EC50) in [1] was greater than 128 µg/mL. Besides, on Escherichia Coli LeuRS (setting [10]), the “K (binding constant)” value was 83500 M⁻¹ and 77000 M⁻¹; the “ΔH” value is -5.69 kcal/mol and -5.899 kcal/mol and -6.2 kcal/mol; the “ΔS” value is “+3.44 cal/mol/° C. and +2.28 cal/mol/° C. and +1.56 cal/mol/° C”. Further, the Kd on Escherichia Coli LeuRS (setting [11]) was 15000 nM. Also, the Kd on Escherichia Coli LeuRS (setting [12]) came to 13000 nM.
Take `CC(C)C[C@H](N)C(=O)N[S@+]([O-])c1ccccc1` (single isomer, unassigned) [V-i]: in data set [1], the “antibacterial activity (in words)” value is on record as “potent antibacterial agent” and a half-maximal response (EC50) required 4 µg/mL (≈ 15.7 µM). Also, on Escherichia Coli LeuRS (ITC), the “binding to E. coli LeuRS (in words)” value was “binds with high affinity”. Besides, on Escherichia Coli LeuRS (setting [10]), the “K (binding constant)” value is 2.4e+08 M⁻¹; the “ΔS” value was −7.96 cal/mol/° C. and −12.5 cal/mol/° C. and −7.03 cal/mol/° C. Also, at Escherichia Coli LeuRS (setting [11]), the Kd is 6.49 nM and 3.14 nM. The Kd at Escherichia Coli LeuRS (setting [12]) is 4.6 nM.
On to `CC(C)CC(N)C(=O)N[S+]([O-])c1cccc(OC(F)(F)F)c1` (stereo not drawn) [4.20], for which the IC50 at 24 h in [2] was greater than 64 µg/mL. This compound showed a Kd at E. Coli LeuRS of 1.39 ± 0.07 nM. This compound also came in with a ΔG at E. Coli LeuRS of -12.08 ± 0.03 kcal/mol. This compound also registered a ΔH at E. Coli LeuRS of -11.64 ± 0.45 kcal/mol. The MIC in data set [3] is greater than 64 µg/mL; in data set [4], greater than 64 µg/mL; in data set [5] it was 8 µg/mL (≈ 23.6 µM); in data set [6], greater than 64 µg/mL; in data set [7], 64 µg/mL (≈ 189 µM); in data set [8] it was greater than 64 µg/mL. The same compound displayed an MIC in [9] of 8 µg/mL (≈ 23.6 µM).
